Test results taken from the supplement of paper PMC10307832.

Columns and labels:
Assay in all cases: relative viability (nuclei count vs DMSO), 5 days (fraction); higher = more cells survive
[1] = compound: CCc1c2c(nc3ccc(OC(=O)N4CCC(N5CCCCC5)CC4)cc13)-c1cc3c(c(=O)n1C2)COC(=O)[C@]3(O)CC [Irinotecan] + CC1(C)CCC(c2ccc(Cl)cc2)=C(CN2CCN(c3ccc(C(=O)NS(=O)(=O)c4ccc(N[C@H](CCN5CCOCC5)CSc5ccccc5)c(S(=O)(=O)C(F)(F)F)c4)cc3)CC2)C1 [Navitoclax] (partner 0.5 µM)
Summary of the method: (§1)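 Lung cancer cell lines, seeded in 1536-well plates, were treated the following day by pin tool with a single drug or with five library-drug doses (not always all listed) in √10 steps on top of a fixed anchor-drug dose. Cells were fixed and nuclei stained in one step after 5 days, and nuclei were counted. Relative viability is the nuclei count for treated wells divided by that for vehicle wells, reported as medians of duplicate plates.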

[2] = compound: Cn1cc(-c2cnc3ccc4ccc(CS(=O)(=O)NCc5ccccn5)cc4c(=O)c3c2)cn1 [MK-8033] + CC(=O)c1c(C)c2cnc(Nc3ccc(N4CCNCC4)cn3)nc2n(C2CCCC2)c1=O [Palbociclib] (partner 0.5 µM)
Summary of the method: as §1

[3] = compound: Cn1cc(-c2cnc3ccc4ccc(CS(=O)(=O)NCc5ccccn5)cc4c(=O)c3c2)cn1 [MK-8033] + CS(=O)(=O)CCNCc1ccc(-c2ccc3ncnc(Nc4ccc(OCc5cccc(F)c5)c(Cl)c4)c3c2)o1 [Lapatinib] (partner 2 µM)
Summary of the method: as §1

[4] = compound: Cn1cc(-c2cnc3ccc4ccc(CS(=O)(=O)NCc5ccccn5)cc4c(=O)c3c2)cn1 [MK-8033] + CCNC(=O)c1noc(-c2cc(C(C)C)c(O)cc2O)c1-c1ccc(CN2CCOCC2)cc1 [Luminespib] (partner 0.01 µM)
Summary of the method: as §1

Cell Line | relative viability ([1]; first compound 0.6325 µM) | relative viability ([1]; first compound 2 µM) | relative viability ([1]; first compound 6.325 µM) | relative viability ([1]; first compound 20 µM) | relative viability ([2]; first compound 0.02 µM) | relative viability ([2]; first compound 0.06325 µM) | relative viability ([2]; first compound 0.2 µM) | relative viability ([2]; first compound 2 µM) | relative viability ([3]; first compound 0.02 µM) | relative viability ([3]; first compound 0.06325 µM) | relative viability ([3]; first compound 0.2 µM) | relative viability ([3]; first compound 0.6325 µM) | relative viability ([3]; first compound 2 µM) | relative viability ([4]; first compound 0.02 µM) | relative viability ([4]; first compound 0.06325 µM) | relative viability ([4]; first compound 0.6325 µM) | relative viability ([4]; first compound 2 µM) | relative viability ([2]; first compound 0.6325 µM) | relative viability ([4]; first compound 0.2 µM)
NCI-H23 | 0.782 | 0.505 | 0.26 | 0.22 | 0.463 | 0.576 | 0.406 | 0.413 | 1.27 | 0.818 | 0.919 | 1.35 | 1.09 | 0.245 | 0.216 | 0.204 | 0.198 | – | –
NCI-H322M | 0.733 | 0.453 | 0.348 | 0.338 | 0.531 | 0.443 | 0.45 | 0.433 | 0.605 | 0.508 | 0.531 | 0.575 | 0.602 | 0.85 | 0.85 | 0.873 | 0.842 | 0.49 | 0.78
NCI-H460 | 0.779 | 0.165 | 0.0691 | 0.053 | 0.162 | 0.147 | 0.103 | 0.172 | 0.968 | 0.897 | 0.907 | 1.13 | 0.793 | 0.0295 | 0.038 | 0.0415 | 0.0328 | 0.177 | 0.0269
NCI-H520 | 0.851 | 0.634 | 0.288 | 0.227 | 0.209 | 0.231 | 0.184 | 0.205 | 0.959 | 0.853 | 0.784 | 0.867 | 0.79 | 0.22 | 0.207 | 0.211 | 0.219 | 0.254 | 0.226
NCI-H647 | 1.03 | 0.39 | 0.194 | 0.177 | 0.365 | 0.338 | 0.351 | 0.43 | 0.892 | 1.02 | 0.798 | 1.09 | 1.05 | 0.119 | 0.178 | 0.151 | 0.154 | 0.404 | 0.213
NCI-H727 | 0.225 | 0.358 | 0.319 | 0.308 | 0.668 | 0.617 | 0.653 | 0.657 | 0.759 | 0.72 | 0.665 | 0.748 | 0.858 | 0.434 | – | 0.346 | 0.516 | 0.612 | 0.291
NCI-H838 | 1.14 | 0.754 | 0.4 | 0.266 | 0.213 | 0.207 | 0.217 | 0.22 | 0.902 | 0.844 | 0.925 | 0.927 | 0.911 | 0.248 | 0.292 | 0.296 | 0.273 | 0.213 | 0.335
NCI-H1355 | 0.812 | 0.28 | 0.195 | 0.237 | 0.372 | 0.379 | 0.375 | 0.381 | 0.979 | 0.865 | 0.865 | 0.988 | 0.909 | 0.695 | 0.686 | 0.74 | 0.646 | 0.415 | 0.607
NCI-H1395 | – | 0.677 | 0.521 | 0.344 | 0.499 | 0.588 | 0.654 | 0.624 | 1.1 | 0.958 | 0.858 | 0.931 | 1.35 | 0.764 | 0.559 | 0.735 | 0.584 | 0.612 | 0.526
NCI-H1437 | 0.75 | 0.575 | 0.308 | 0.214 | 0.275 | 0.317 | 0.323 | 0.3 | 0.736 | 0.773 | 0.793 | 0.834 | 0.749 | 1.11 | 1 | 1.08 | 1.04 | 0.303 | 1.05
NCI-H1650 | 1.07 | 0.808 | 0.394 | 0.316 | 0.363 | 0.296 | 0.324 | 0.336 | 0.823 | 0.69 | 0.737 | 0.709 | 0.707 | 0.193 | 0.205 | 0.203 | 0.181 | 0.336 | 0.204
NCI-H1651 | 0.763 | 0.544 | 0.199 | 0.168 | 0.51 | 0.498 | 0.514 | 0.521 | 0.842 | 0.658 | 0.874 | 0.892 | 0.762 | 1.02 | 0.846 | 0.853 | 0.874 | 0.536 | 0.733
NCI-H1666 | 0.695 | 0.643 | 0.401 | 0.326 | 0.684 | 0.627 | 0.523 | 0.598 | 0.708 | 0.505 | 0.519 | 0.656 | 0.587 | 1 | 0.987 | 1.03 | 0.924 | 0.707 | 0.979
NCI-H1734 | 0.618 | 0.376 | 0.156 | 0.188 | 0.349 | 0.309 | 0.342 | 0.371 | 1.11 | 0.88 | 1.02 | 1.09 | 1.01 | 0.173 | 0.177 | 0.182 | 0.17 | 0.331 | 0.176
NCI-H1755 | 0.886 | 0.283 | 0.221 | 0.287 | 0.452 | 0.452 | 0.413 | 0.417 | 1.06 | 0.986 | 1.02 | 1.02 | 0.957 | 0.371 | 0.387 | 0.282 | 0.467 | 0.464 | 0.411
NCI-H1792 | 0.598 | 0.72 | 0.162 | 0.095 | 0.637 | 0.63 | 0.557 | 0.615 | 1.06 | 0.87 | 0.863 | 0.917 | 0.976 | 0.383 | 0.34 | 0.217 | 0.273 | 0.606 | 0.442
